Here are results for 13 compounds from ChEMBL document CHEMBL1201862, “PubChem BioAssay data set” (2004).

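Where inhibition never reached the appropriate level, the endpoint shown equals the highest concentration tested. Otherwise, values were interpolated linearly from a five-concentration, 48-hour dose response in 96-well plates. GI50 = concentration required for 50% inhibition of growth.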 Active and inactive are the calls of the source. Rule as the data show it: active = GI50 up to about 1.1 µM and inactive = higher.

Among the test systems are RPMI-8226; HCT-15; SF-539; LOX IMVI; SNB-19; SR; HT-29; ACHN; UO-31; NCI-H460; IGROV-1; OVCAR-5; EKVX; SF-295; K562; KM12; HOP-92.
Common to all, as to assay: inhibition of tumour cell growth, NCI panel, 48 h

Take `O=[N+]([O-])c1ccc2c(c1)OCCOCCOc1ccc([N+](=O)[O-])cc1OCCOCCO2`: the GI50 with RPMI-8226 was > 100 µM (inactive); in the test on HCT-15 it was over 100 µM; with SF-539, > 100 µM (inactive); in the test with LOX IMVI, > 100 µM (inactive); in the test on SNB-19, > 100 µM (inactive); in the test on SR, > 100 µM (inactive). Further, the GI50 in the test with HT-29, with ACHN, with UO-31, with NCI-H460, in the test with IGROV-1 and with OVCAR-5 was > 100 µM (inactive) throughout. The GI50 in the test on EKVX, in the test with SF-295, in the test on K562 and with KM12 was > 100 µM (inactive) throughout.
With `[N-]=[N+]=NC1CC(n2cc(COCC(F)(F)F)c(=O)[nH]c2=O)OC1CO` (stereo not drawn), the GI50 in the test on RPMI-8226, with HOP-92, in the test with SF-539, in the test with LOX IMVI, in the test with SNB-19 and in the test with HT-29 was > 100 µM (inactive) in each case. For the same compound, the GI50 with ACHN, in the test with UO-31, in the test on NCI-H460, in the test on IGROV-1, in the test with OVCAR-5 and in the test on EKVX was > 100 µM (inactive) throughout. Further, the GI50 in the test with SF-295, in the test on K562 and in the test with KM12 was > 100 µM (inactive) in each case.
On to `[N-]=[N+]=NC(c1cn(C2CC(O)C(CO)O2)c(=O)[nH]c1=O)C(Cl)Br` (stereo not drawn), for which the GI50 is > 100 µM (inactive) in the test on RPMI-8226; over 100 µM in the test on HCT-15; > 100 µM (inactive) with HOP-92; > 100 µM (inactive) in the test with SF-539; > 100 µM (inactive) in the test on LOX IMVI; > 100 µM (inactive) in the test with SNB-19. In addition, the GI50 in the test on SR, in the test on HT-29, in the test on ACHN, in the test on UO-31, with NCI-H460 and in the test on EKVX was > 100 µM (inactive) throughout. Moreover, the GI50 in the test with SF-295, in the test on K562 and with KM12 was > 100 µM (inactive) throughout.
In the case of `Clc1ccc(C2=NOC3C4CCC(C4)C23)cc1` (stereo not drawn), the GI50 was 87.1 µM (inactive) in the test with RPMI-8226; over 100 µM in the test with HCT-15; > 100 µM (inactive) in the test with HOP-92; > 100 µM (inactive) with SF-539; > 100 µM (inactive) in the test with SNB-19; 61.2 µM (inactive) with SR. The GI50 in the test with HT-29, in the test with ACHN, with UO-31, in the test with NCI-H460, with IGROV-1 and in the test with OVCAR-5 was > 100 µM (inactive) throughout. The GI50 was > 100 µM (inactive) in the test with EKVX, 73.1 µM (inactive) in the test on SF-295, > 100 µM (inactive) with K562 and > 100 µM (inactive) in the test with KM12.
As for `NC(Cc1ccccc1)C(=O)OCN1C(=O)C2C3C=CC(C2C1=O)C1C2C(=O)N(COC(=O)C(N)Cc4ccccc4)C(=O)C2C31` (stereo not drawn), the GI50 was 18.7 µM (inactive) in the test with RPMI-8226; 17.6 µM in the test with HCT-15; 41.8 µM (inactive) with HOP-92; 22.5 µM (inactive) in the test with SF-539; 18.7 µM (inactive) with LOX IMVI; 43.1 µM (inactive) in the test with SNB-19. For the same compound, the GI50 was 31.8 µM (inactive) with HT-29; 26.5 µM (inactive) in the test with ACHN; 16.3 µM (inactive) in the test on NCI-H460; 23.9 µM (inactive) in the test with IGROV-1; 35.5 µM (inactive) in the test with OVCAR-5; 41.7 µM (inactive) with SF-295. Besides, the GI50 with K562 was 29.6 µM (inactive); in the test on KM12, 20.7 µM (inactive).
For `COc1ccc(/C=C2/C[N+](C)(C)C/C(=C/c3ccc(OC)cc3)C2=O)cc1`, the GI50 in the test on RPMI-8226 is 5.7 µM (inactive); with HCT-15, over 100 µM; in the test with HOP-92 it was 52.1 µM (inactive); with SF-539, 40 µM (inactive); in the test on LOX IMVI it was 88.1 µM (inactive); in the test with SNB-19, 43.3 µM (inactive). The GI50 with HT-29 was 30.2 µM (inactive); in the test on ACHN it was > 100 µM (inactive); with UO-31, > 100 µM (inactive); with NCI-H460 it was 38.2 µM (inactive); in the test with IGROV-1, 23.9 µM (inactive); in the test with OVCAR-5 it was > 68.7 µM (inactive). For the same compound, the GI50 with EKVX was > 100 µM (inactive); in the test with SF-295 it was > 77.1 µM (inactive); in the test with K562, 11.6 µM (inactive); in the test on KM12, 16 µM (inactive).
Consider `Nc1ccc2c(c1)Oc1c(F)c(F)cc3c(=O)c(C(=O)O)cn-2c13`, for which the GI50 in the test on RPMI-8226 is 25.2 µM (inactive); in the test on HCT-15, 46.2 µM; with HOP-92 it was 25.1 µM (inactive); with SF-539, 39.2 µM (inactive); in the test with SNB-19 it was 35.2 µM (inactive); with SR, 34.6 µM (inactive). Also, the GI50 in the test on HT-29 is 35.2 µM (inactive); in the test on UO-31, 27.3 µM (inactive); in the test with IGROV-1, 38.6 µM (inactive); in the test with OVCAR-5, > 100 µM (inactive); in the test with EKVX, > 100 µM (inactive); in the test on K562, 59.6 µM (inactive). Moreover, the GI50 with KM12 was 23.6 µM (inactive).
As to `CCCO/S(=N\S(=O)(=O)c1ccccc1)c1ccccc1[N+](=O)[O-]` (stereo not drawn), the GI50 in the test with RPMI-8226 was > 100 µM (inactive); in the test on HCT-15, over 100 µM; in the test with SF-539, > 100 µM (inactive); in the test with LOX IMVI it was > 100 µM (inactive); in the test on SNB-19, > 100 µM (inactive); with SR it was > 100 µM (inactive). Besides, the GI50 in the test on HT-29, with ACHN, in the test on UO-31, with NCI-H460, with IGROV-1 and with OVCAR-5 was > 100 µM (inactive) throughout. Also, the GI50 in the test with EKVX, with SF-295, in the test on K562 and in the test on KM12 was > 100 µM (inactive) each time.
As for `COC(=O)c1ccccc1NC(=O)C(=O)NNC(=O)c1ccncc1`, the GI50 in the test on HCT-15 is over 100 µM; in the test on HOP-92, > 100 µM (inactive); in the test on SF-539, > 100 µM (inactive); in the test on LOX IMVI it was > 100 µM (inactive); in the test with SNB-19 it was > 100 µM (inactive); in the test with SR, > 100 µM (inactive). Moreover, the GI50 with HT-29, with ACHN, in the test with UO-31, in the test with NCI-H460, with IGROV-1 and in the test on EKVX was > 100 µM (inactive) in each case. Also, the GI50 with SF-295 and in the test with KM12 was > 100 µM (inactive) each time.
Consider `CCc1ccccc1NC(=O)C(=O)CC(=O)c1sc(Nc2ccccc2)nc1C`, for which the GI50 is over 100 µM in the test with HCT-15; > 100 µM (inactive) in the test on HOP-92; > 100 µM (inactive) with SF-539; > 100 µM (inactive) in the test with LOX IMVI; > 100 µM (inactive) with SNB-19; 99.3 µM (inactive) in the test with SR. For the same compound, the GI50 in the test on HT-29, in the test with ACHN, in the test with UO-31, in the test with NCI-H460, in the test on IGROV-1 and in the test with OVCAR-5 was > 100 µM (inactive) in each case. In addition, the GI50 in the test with EKVX was 29.4 µM (inactive); in the test with SF-295 it was > 100 µM (inactive); in the test with K562, 97.1 µM (inactive); with KM12, > 100 µM (inactive).
Regarding `Cc1cc2c(cc1C)[n+]([O-])c(C(=O)/C=C/c1ccc(Cl)cc1)c(C)[n+]2[O-]`, the GI50 with RPMI-8226 was 23.4 µM (inactive); with HCT-15, 33 µM; in the test on HOP-92, 28.6 µM (inactive); with SF-539, 20.5 µM (inactive); in the test with LOX IMVI, 21.7 µM (inactive); with SNB-19 it was 30.3 µM (inactive). Moreover, the GI50 was 30.3 µM (inactive) in the test on HT-29; 25.5 µM (inactive) in the test on ACHN; 17.9 µM (inactive) in the test with UO-31; 25.9 µM (inactive) in the test with NCI-H460; 24.5 µM (inactive) with IGROV-1; 42.3 µM (inactive) with OVCAR-5. Also, the GI50 was 55 µM (inactive) with EKVX, 22 µM (inactive) in the test with SF-295, 33.6 µM (inactive) with K562 and 33.7 µM (inactive) in the test with KM12.
As to `Brc1ccc(/N=c2/nc3ccccn3n3nc(-c4ccccc4)cc23)cc1`, the GI50 is > 100 µM (inactive) in the test on RPMI-8226; 30.5 µM in the test on HCT-15; 17.8 µM (inactive) in the test on HOP-92; 28.3 µM (inactive) with SF-539; 28.5 µM (inactive) in the test on SNB-19; > 100 µM (inactive) with SR. Also, the GI50 is 75.5 µM (inactive) in the test with HT-29; 26.2 µM (inactive) in the test with ACHN; > 100 µM (inactive) with UO-31; 45.1 µM (inactive) in the test with NCI-H460; > 100 µM (inactive) with IGROV-1; 47.6 µM (inactive) in the test on EKVX. In addition, the figures for the GI50 in the test on SF-295, in the test on K562 and in the test on KM12 were 34.8 µM (inactive), > 100 µM (inactive) and 39.9 µM (inactive), respectively.
As to `CC(C)c1ccc2c(c1)CCC1C(C)(C)[C@@H](O)CC[C@]21C` (stereo partly drawn), the GI50 in the test on RPMI-8226 is 21.2 µM (inactive); in the test with HCT-15, 32.7 µM; in the test with HOP-92, 23.5 µM (inactive); in the test on SF-539, 22.3 µM (inactive); in the test with LOX IMVI, 15.1 µM (inactive); with SNB-19, 52.4 µM (inactive). Also, the GI50 was 16.5 µM (inactive) in the test on SR; 16.3 µM (inactive) with HT-29; 47.4 µM (inactive) with ACHN; 69.5 µM (inactive) in the test with UO-31; 17.9 µM (inactive) with NCI-H460; > 100 µM (inactive) with IGROV-1. Moreover, the GI50 in the test on OVCAR-5 is 18.8 µM (inactive); in the test on SF-295, 18.3 µM (inactive); in the test on K562 it was 24.9 µM (inactive); in the test with KM12 it was 22.3 µM (inactive).
